Patent US5759991A, “Neurotrophic peptide derivatives” (Sumitomo Pharmaceutical Company, Limited., priority 1991, dated 1998)

How the values were obtained:
[1] = system: tissue of medial septum nuclei; experiment: acetylcholine synthesis activity of cultured medial septum nucleus tissue (method of Ojika et al.); format: cell-based; details: human-derived HCNP peptide compared with rat-derived HCNP
Source text: The neurotrophic activity (also called neurotrophic factor activity) refers to, for example, an action of regulating differentiation and maturation of neuronal cells, namely, an action of accelerating the acetylcholine synthesis in the tissue of medial septum nuclei which is rich in cholinergic neurons.
The human-derived neurotrophic peptide or its derivatives of the present invention can regulate differentiation and maturation of neuronal cells. That is, the neurotrophic peptide and derivatives thereof accelerate the acetylcholine synthesis in the tissue of medial septum nuclei. The biological activity can be determined by the method of Ojika, K., et a. (Reference 66).
Medial septal nucleus was extracted from the brains of 16-day-old SD rat embryos and microscopically dissected into small pieces. […]
Except in the experiment for the study of sequential growth, the cultured tissue on the 9th day was washed with a Tris-HCl (pH 7.4) buffered Tyrode's solution, followed by preincubation in a high-K (55 mM KCl) Tyrode's solution, and then incubation in a Tyrode's solution containing ^3 H-choline chloride at 37° C. for 30 minutes. […] The choline uptake and Ach-productivity were expressed as amounts per one piece of cultured tissue. Choline acetyl-transferase (CATase) was measured using ^14 C-acetyl-CoA, according to the method of Fonnum, biochemical Journal, 115, 465-472 (1969). […]

[2] = system: tissue of medial septum nuclei; details: rat medial septum nuclei acetylcholinergic neuron; Reference 1; cited from earlier work

## H-PVDLSKWSGPL-OH [hHCNP, H-Pro-Val-Asp-Leu-Ser-Lys-Trp-Ser-Gly-Pro-Leu-OH]
[1]
  neurotrophic activity (acceleration of acetylcholine synthesis): neurotrophic activity similar to rat-derived HCNP was noted

## HCNP: hippocampal cholinergic neurotrophic peptide composed of 11 amino acid residues isolated from hippocampal tissue of neonatal rat (AADISQWAGPL)
[2]
  production of acetylcholine: enhances production of acetylcholine
